# Assay results as given in patent US5519049A, “Macrolides for the treatment of reversible obstructive airways diseases” (Fisons plc, priority 1989, dated 1996).
# What was measured:
# [1] = system: antigen-induced bronchial hyper-responsiveness to acetylcholine; assay: Assay for antigen-induced bronchial hyper-responsiveness to acetylcholine (PC200-Ach); assay type: in vivo, inhalation-sensitized male Hartley guinea pigs; details: oral pretreatment every other day, 1 mgml^-1 solution, n = 7, result in words (table title)
# Procedure: (§1) Assay for inhibitory activity against respiratory resistance and antigen-induced bronchial hyper-responsiveness
# (§2) Male Hartley guinea pigs (weighing about 300 g) were each placed in a plastic inhalation chamber. Using an ultrasonic nebulizer (NEU10B, Omron Corporation), an aerosolized solution of ovalbumin in physiological saline (10 mgml^-1) was introduced into the chamber for 10 minutes daily for 10 consecutive days to effect sensitization. The animals were used in the experiments 5 days after establishment of sensitization.
# During the period from the first day of sensitization to the day before an antigen challenge, the animals were orally treated with a 1 mgml^-1 solution of FR-900506 (in ethanol/olive oil [2:78 v/v]) every other day. Control animals received the ethanol/olive oil vehicle alone in the same manner. […]
# Guinea pigs prepared by the method described above were placed in an animal box as described above and the baseline respiratory resistance was measured. […] From the concentration-resistance curve constructed from the acetylcholine concentration and respiratory resistance data, the acetylcholine concentration necessary for increasing the respiratory resistance to twice the baseline value [i.e. PC200 -Ach (μgml^-1)] was calculated.
# (§3) The results are expressed as mean ±SEM. […]
# respiratory resistance = assay: Assay for respiratory resistance (inhibitory activity after antigen inhalation challenge, oscillation method); assay type: in vivo, inhalation-sensitized male Hartley guinea pigs; details: oral pretreatment every other day, 1 mgml^-1 solution; n = 7; after ovalbumin inhalation challenge; result in words (table title)
# Procedure: as §1, §2
# During the period from the first day of sensitization to the day before an antigen challenge, the animals were orally treated with a 1 mgml^-1 solution of FR-900506 (in ethanol/olive oil [2:78 v/v]) every other day. Control animals received the ethanol/olive oil vehicle alone in the same manner.
# The experimental period was 5 days from day 1 to day 5, and the inhalation challenge with the antigen was given on day 2.
# On day 1, and 30 minutes before antigen inhalation challenge on day 2, metopirone (an endogenous cortisol synthesis inhibitor) was intravenously administered (10 mgkg^-1). So that the animals could tolerate the antigen at comparatively high concentrations, chlorpheniramine maleate, an antihistaminic, was intraperitoneally administered (10 mgkg^-1) following the second dose of metopirone. […]
# as §3
# ddy mice = assay: Acute intraperitoneal toxicity study; assay type: in vivo; details: 100 mgkg^-1
smiles,measurement,setting,value
C=CC[C@@H]1/C=C(\C)C[C@H](C)C[C@H](OC)[C@H]2O[C@@](O)(C(=O)C(=O)N3CCCC[C@H]3C(=O)O[C@H](/C(C)=C/[C@@H]3CC[C@@H](O)[C@H](OC)C3)[C@H](C)[C@@H](O)CC1=O)[C@H](C)C[C@@H]2OC [FR-900506],Inhibitory effect on antigen induced hyper-responsiveness to acetylcholine,[1],Inhibitory effect
same,Inhibitory effect on respiratory resistance,respiratory resistance,Inhibitory effect
same,"Acute intraperitoneal toxicity, deaths",ddy mice,no deaths
